Patent publication US7947854B2, “Bis-cationic compounds and use thereof” (The University of Sydney, priority 2003, dated 2011)
Like-named read-outs stand apart in the source and are kept apart here. One block for each compound: values may come before it.

How the values were obtained:
[1] = tested on: secreted phospholipase B (PLB activity); experiment: Radiometric assay, secreted PLB activity; type: biochemical, Cryptococcus neoformans H99
Method: (§1) Fungal isolates and media. […] Isolate H99 was kindly supplied by Dr. Gary Cox (Duke University Medical Center, Durham, N.C., USA), and subcultured onto Sabouraud dextrose agar (SDA) at 30° C.
(§2) Preparation of supernatants containing secreted phospholipase activities. Isolate H99 was grown to confluence on SDA in 16 cm diameter Petri dishes for 72 h at 30° C. in air. Cells scraped from 10-20 dishes were washed sequentially with isotonic saline and imidazole buffer (10 mM imidazole, 2 mM CaCl2, 2 mM Mg Cl2, 56 mM D-Glucose, made up in isotonic saline, pH 5.5), resuspended in a volume of this buffer of about 10% of the cell volume, and incubated for 24 h at 37° C. The cell-free supernatant was separated by centrifugation as previously described and stored at −70° C.
Radiometric assay method for phospholipases. Enzyme activities were measured as described previously in a final volume of 125 μL at 37° C. For the determination of secreted PLB activity, carrier dipalmitoyl phosphatidylcholine (DPPC, final concentration 800 μM) and 1,2-di[1-^14C] palmitoyl phosphatidylcholine (20,000 dpm) were dried under nitrogen and suspended in 125 mM imidazole acetate buffer (assay buffer, pH 4.0) by sonication using a Branson 450 sonifier. The reaction time was 22 min, using 1 μg total protein and PLB activity was determined by the rate of decrease of the radiolabelled PC substrate, with appearance of the label in free fatty acid. This assay also simultaneously allows for the determination of phospholipase A, C and D activities. These activities were measured by the appearance of radiolabel from PC in Lyso PC, diacylglycerol and phosphatidic acid, respectively.
(§3) All reactions were terminated by adding 0.5 mL of chloroform:methanol (2:1 v/v). The reaction products were extracted by the method as disclosed in Bligh, E. C. and W. J. Dyer. 1959 ‘A rapid method of total lipid extraction and purification.’ Can. J. Biochem. Physiol. 37:911-917, separated by TLC and quantified as previously described. In the case of PLC activity, the TLC plates were developed in petroleum ether (BP 60-80° C.): diethyl ether: acetic acid (90:15:1, v/v/v) instead of chloroform:methanol:water (65:25:4, v/v/v).
(§4) Preparation of inhibitors and use in assays. The following compounds were tested (for structures, see FIG. 2): compound 1, 1,12-bis(tributylphosphonium)dodecane dibromide (Fluka AG, Buchs, Switzerland); compound 2, 1,10-bis(tributylammonium)-decane dibromide; compound 3, 1,12-bis(tributylammonium)do-decane dibromide (both synthesised in-house); compound 4, 1,10-bis(trimethylammonium)decane dibromide [“decamethonium”] (Sigma, St. Louis Mo., USA). All compounds were prepared as stock solutions of 700 μM in assay buffer containing 5 mM EDTA, which was then diluted serially with buffer to obtain solutions of 70, 7, 0.7 and 0.07 μM. In each assay, 45 μL of these solutions was used, and the final volume of 125 μL was made up of substrate, enzyme and buffer. The radiometric assay was carried out as above. Inhibition was calculated as the percent of substrates (DPPC or Lyso-PC) remaining in the case of PLB and LPL activities, or of DPPC produced, in the case of the LPTA activity. The amounts converted, or produced, in the inhibitor-free control were normalised to 100%, and the inhibition calculated against it. All assays were done in triplicate.
(§5) Under these conditions only PLB, LPL and LPTA activities (both secreted and cell-associated) were measured. Initially, compounds deemed to be potential inhibitors were assayed at 25 and 250 μM. Those showing some inhibition were then also assayed at 2.5 and 0.25 μM.

[2] = tested on: secreted phospholipase B (LPL/LPTA activities); experiment: Radiometric assay, secreted LPL and LPTA activities (Lyso assay); type: biochemical, Cryptococcus neoformans H99
Method: as §1, §2
Secreted LPL and LPTA activities were measured simultaneously in a reaction mixture containing 1-[^14C]palmitoyl lyso-PC (25,000 dpm) and carrier lyso-PC (final concentration 200 μM) in assay buffer. The reaction time was […] with 1 μg of total protein and LPL activity was measured by the rate of loss of 1-[^14C]palmitoyl lyso-PC with release of radiolabelled fatty acids. LPTA activity was estimated from the rate of formation of radiolabelled PC.
as §3, §4, §5

[3] = tested on: Candida albicans ATCC 10231; experiment: Antifungal susceptibility testing, microdilution MIC; type: cell-based; conditions: Candida albicans
Method: (§6) Antifungal susceptibility testing. The antifingal activity of the compounds was measured by a standard microdilution method. […] The fungal strains tested included Cryptococcus neoformans H99, Cryptococcus neoformans ATCC 90112 and Candida albicans ATCC 10231. All tests were performed in duplicate.
(§7) A range of cationic compounds were assayed for antifungal activity in a standardised serial dilution sensitivity test against C. neoformans ([…]) and C. Albicans (ATCC 10231).

[4] = tested on: Cryptococcus neoformans ATCC 90112; experiment: as above; type: cell-based; conditions: Cryptococcus neoformans
Method: as §6, §7

[5] = tested on: erythrocyte; type: cell-based; conditions: 37° C., 1 h
Method: Human blood was collected in 10 mL Vacutainer tubes containing potassium-EDTA as anticoagulant. The blood from each vacutainer was transferred to a 50 mL centrifuge tube and the cells washed three times with calcium- and magnesium-free phosphate buffered saline (PBS) (Gibco) by centrifugation at 2000×g for 15 min. The third supernatant was clear and colourless. Cells were stored in PBS for up to two weeks. The cell suspension in PBS (0.5 mL) was mixed with a stock solution of test substance (0.5 mL) at the appropriate concentration (final erythrocyte concentration of approx. 0.5×10^9 per mL). The mixtures were incubated at 37° C. for 1 h with gentle shaking, then centrifuged at 2000×g for 10 min. The supernatant was diluted 10-fold with PBS and the optical density measured at 540 nm. The values for 0% and 100% lysis were determined by incubating cells with PBS or 0.1% Triton X-100 (in water), respectively. Assays were carried out in triplicate.

[6] = ATCC10231, Table 7, read-out: MIC (μM) C. alb. (10231)
[7] = ATCC90112, Table 7, read-out: MIC (μM) Crypto. (ATCC 90112)
[8] = ATCC10231, read-out: MIC (μM) C. alb. (10231)
[9] = ATCC90112, read-out: MIC (μM) Crypto. (ATCC 90112)

Compound: CCCCCCCCCCCCCCCC[P+](CCCC)(CCCC)CCCC
- PLB assay (% inhibition) ([1]; 0.25 μM): 0%
- PLB assay (% inhibition) ([1]; 2.5 μM): 15%
- PLB assay (% inhibition) ([1]; 25 μM): 37%
- PLB assay (% inhibition) ([1]; 250 μM): 92%
- Lyso assay (% inhibition) LPL ([2]; 0.25 μM): 0%
- Lyso assay (% inhibition) LPTA ([2]; 0.25 μM): 0%
- Lyso assay (% inhibition) LPL ([2]; 2.5 μM): 0%
- Lyso assay (% inhibition) LPTA ([2]; 2.5 μM): 0%
- Lyso assay (% inhibition) LPL ([2]; 25 μM): 15%
- Lyso assay (% inhibition) LPTA ([2]; 25 μM): 5%
- Lyso assay (% inhibition) LPL ([2]; 250 μM): 98%
- Lyso assay (% inhibition) LPTA ([2]; 250 μM): 95%
- MIC [3, 6]: 2.2 µM
- MIC [4, 7]: ≤ 0.6 µM
- Haemolytic assay (%) ([5]; 3.5 μM): 2.5%
- Haemolytic assay (%) ([5]; 35 μM): 4%
- Haemolytic assay (%) ([5]; 88 μM): 7%
- Haemolytic assay (%) ([5]; 175 μM): 32%
- Haemolytic assay (%) ([5]; 350 μM): 100%

Compound: C[N+](C)(C)CCCCCCCCCCCC[N+](C)(C)C [1,12-Bis-(trimethylammonium)dodecane dibromide]
- PLB assay (% inhibition) ([1]; 25 μM): 2%
- PLB assay (% inhibition) ([1]; 250 μM): 3%
- Lyso assay (% inhibition) LPL ([2]; 25 μM): 250 μM = 0% 25 μM = 0% 2.5 μM = n.d. 0.25 μM = n.d.
- Lyso assay (% inhibition) LPTA ([2]; 25 μM): 4%
- Lyso assay (% inhibition) LPL ([2]; 250 μM): 250 μM = 0% 25 μM = 0% 2.5 μM = n.d. 0.25 μM = n.d.
- Lyso assay (% inhibition) LPTA ([2]; 250 μM): 5%
- MIC [3, 8]: 175 µM
- MIC [4, 9]: 175 µM
- Haemolytic assay (%) ([5]; 3.5 μM): 350 μM = 0% 175 μM = 0% 88 μM = 0% 35 μM = 0% 3.5 μM = 0%
- Haemolytic assay (%) ([5]; 35 μM): 350 μM = 0% 175 μM = 0% 88 μM = 0% 35 μM = 0% 3.5 μM = 0%
- Haemolytic assay (%) ([5]; 88 μM): 350 μM = 0% 175 μM = 0% 88 μM = 0% 35 μM = 0% 3.5 μM = 0%
- Haemolytic assay (%) ([5]; 175 μM): 350 μM = 0% 175 μM = 0% 88 μM = 0% 35 μM = 0% 3.5 μM = 0%
- Haemolytic assay (%) ([5]; 350 μM): 350 μM = 0% 175 μM = 0% 88 μM = 0% 35 μM = 0% 3.5 μM = 0%

Compound: CCC[N+](CCC)(CCC)CCCCCCCCCCCC[N+](CCC)(CCC)CCC [1,12-Bis-(tripropylammonium)dodecane dibromide]
- PLB assay (% inhibition) ([1]; 0.25 μM): 5%
- PLB assay (% inhibition) ([1]; 2.5 μM): 6%
- PLB assay (% inhibition) ([1]; 6.7 μM): 42%
- PLB assay (% inhibition) ([1]; 12.5 μM): 68%
- PLB assay (% inhibition) ([1]; 25 μM): 71%
- PLB assay (% inhibition) ([1]; 250 μM): 80%
- Lyso assay (% inhibition) LPL ([2]; 0.25 μM): 0%
- Lyso assay (% inhibition) LPTA ([2]; 0.25 μM): 0%
- Lyso assay (% inhibition) LPL ([2]; 2.5 μM): 0%
- Lyso assay (% inhibition) LPTA ([2]; 2.5 μM): 0%
- Lyso assay (% inhibition) LPL ([2]; 25 μM): 5%
- Lyso assay (% inhibition) LPTA ([2]; 25 μM): 20%
- Lyso assay (% inhibition) LPL ([2]; 250 μM): 8%
- Lyso assay (% inhibition) LPTA ([2]; 250 μM): 10%
- MIC [3, 6]: 10 µM
- MIC [4, 7]: 5.5 µM

- MIC [3, 6]: 88 µM
- MIC [4, 7]: 88 µM
Compound: CCCC[N+]1(CCCCCCCCCCCC[N+]2(CCCC)CCCC2)CCCC1 [C12-bis-N-butyl-pyro. dibromide, 1,12-Bis-(N-butylpyrrolidinium)dodecane dibromide]
- Haemolytic assay (%) ([5]; 3.5 μM): 350 μM = 0% 175 μM = 0% 88 μM = 0% 35 μM = 0% 3.5 μM = 0%
- Haemolytic assay (%) ([5]; 35 μM): 350 μM = 0% 175 μM = 0% 88 μM = 0% 35 μM = 0% 3.5 μM = 0%
- Haemolytic assay (%) ([5]; 88 μM): 350 μM = 0% 175 μM = 0% 88 μM = 0% 35 μM = 0% 3.5 μM = 0%
- Haemolytic assay (%) ([5]; 175 μM): 350 μM = 0% 175 μM = 0% 88 μM = 0% 35 μM = 0% 3.5 μM = 0%
- Haemolytic assay (%) ([5]; 350 μM): 350 μM = 0% 175 μM = 0% 88 μM = 0% 35 μM = 0% 3.5 μM = 0%

Compound: C[N+]1(CCCCCCCCCCCC[N+]2(C)CCCC2)CCCC1 [C12-bis-N-methyl-pyro. dibromide, 1,12-Bis-(1-methylpyrrolidinium)dodecane dibromide]
- PLB assay (% inhibition) ([1]; 25 μM): 0%
- PLB assay (% inhibition) ([1]; 250 μM): 9%
- Lyso assay (% inhibition) LPL ([2]; 25 μM): 250 μM = 0% 25 μM = 0% 2.5 μM = n.d. 0.25 μM = n.d.
- Lyso assay (% inhibition) LPTA ([2]; 25 μM): 250 μM = 0% 25 μM = 0% 2.5 μM = n.d. 0.25 μM = n.d.
- Lyso assay (% inhibition) LPL ([2]; 250 μM): 250 μM = 0% 25 μM = 0% 2.5 μM = n.d. 0.25 μM = n.d.
- Lyso assay (% inhibition) LPTA ([2]; 250 μM): 250 μM = 0% 25 μM = 0% 2.5 μM = n.d. 0.25 μM = n.d.
- MIC [3, 8]: 175 µM
- MIC [4, 9]: 175 µM
